In patent US11426397B2, “Piperidinyl- and piperazinyl-substituted heteroaromatic carboxamides as modulators of GPR6” (TAKEDA PHARMACEUTICAL COMPANY LIMITED, priority 2017, dated 2022):

target: T1, GPR6 receptor expressed in CHO-K1 cells (Homo sapiens, UniProt P46095); test: In vitro inhibition of cAMP (EC50), cell-based HTRF cAMP assay; details: inhibition of constitutive cAMP activity of GPR6 in CHO-K1 cells
T1 construct: expressed in transfected cells
Procedure, shortened: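 Tetracycline-inducible CHO-K1 line, GPR6 expression induced 20 h with 2 μg/mL doxycycline. Compounds incubated 45 min at 37 °C in Ringer's buffer (pH 7.4) with 0.5% fatty acid free BSA and 300 μM IBMX. Constitutive cAMP read by Lance HTRF; EC50 from four-parameter logistic fit.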

T1 sequence (P46095 whole entry): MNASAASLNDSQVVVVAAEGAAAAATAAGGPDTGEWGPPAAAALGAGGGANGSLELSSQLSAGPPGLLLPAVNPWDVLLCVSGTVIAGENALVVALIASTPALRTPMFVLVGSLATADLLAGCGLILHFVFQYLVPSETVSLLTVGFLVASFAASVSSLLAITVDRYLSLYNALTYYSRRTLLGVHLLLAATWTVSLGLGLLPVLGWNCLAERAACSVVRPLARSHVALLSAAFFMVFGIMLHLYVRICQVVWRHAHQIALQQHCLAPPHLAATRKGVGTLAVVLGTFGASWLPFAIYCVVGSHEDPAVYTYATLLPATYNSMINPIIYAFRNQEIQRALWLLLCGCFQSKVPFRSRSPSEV

| pEC50, in vitro inhibition of cAMP | SMILES |
| --- | --- |
| 6.4 | COc1nn(C)cc1C(=O)Nc1cc(C#N)cnc1N1CCN(Cc2ccc(C#N)cc2)CC1 [Example 153, N-(5-cyano-2-(4-(4-cyanobenzyl)piperazin-1-yl)pyridin-3-yl)-3-methoxy-1-methyl-1H-pyrazole-4-carboxamide] |
| 6.0 | COc1ncccc1C(=O)Nc1cc(C#N)ccc1N1CCN(C(C)c2ccc(F)cc2)CC1 (stereo not shown) [Example 288] |
| 6.8 | COc1ccc(F)c(CN2CCN(c3ccc(C#N)cc3NC(=O)c3cccnc3OC)CC2)c1 [Example 242, N-(5-cyano-2-(4-(2-fluoro-5-methoxybenzyl)piperazin-1-yl)phenyl)-2-methoxynicotinamide] |
| 6.3 | N#Cc1ccc(N2CCC(Oc3ccc(F)cc3F)CC2)c(NC(=O)c2cccnn2)c1 [Example 126, N-(5-cyano-2-(4-(2,4-difluorophenoxy)piperidin-1-yl)phenyl)pyridazine-3-carboxamide] |
| 6.0 | COc1ncccc1C(=O)Nc1cc(C#N)ccc1N1CCN(Cc2cscn2)CC1 [Example 241, N-(5-cyano-2-(4-(thiazol-4-ylmethyl)piperazin-1-yl)phenyl)-2-methoxynicotinamide] |
| 7.2 | COc1ncccc1C(=O)Nc1cc(C(=O)N(C)C)cnc1N1CCC(Oc2ccc(F)cc2F)CC1 [Example 148, 6-(4-(2,4-difluorophenoxy)piperidin-1-yl)-5-(2-methoxynicotinamido)-N,N-dimethylnicotinamide] |
| 5.8 | Cn1cc2ccc(NC(=O)c3ccccn3)c(N3CCC(Oc4ccc(F)cc4F)CC3)c2n1 [Example 149, N-(7-(4-(2,4-difluorophenoxy)piperidin-1-yl)-2-methyl-2H-indazol-6-yl)picolinamide] |
| 5.5 | COc1ccc(N2CCOCC2)cc1C(=O)Nc1cc(C#N)ccc1N1CCC(Oc2ccc(F)cc2F)CC1 [Example 215, N-(5-cyano-2-(4-(2,4-difluorophenoxy)piperidin-1-yl)phenyl)-2-methoxy-5-morpholinobenzamide] |
| 6.8 | COc1nn(C)cc1C(=O)Nc1cc(C#N)cnc1N1CCN(Cc2c(F)cc(F)cc2F)CC1 [Example 173, N-(5-cyano-2-(4-(2,4,6-trifluorobenzyl)piperazin-1-yl)pyridin-3-yl)-3-methoxy-1-methyl-1H-pyrazole-4-carboxamide] |
| 6.9 | COc1ncccc1C(=O)Nc1cc(C#N)ccc1N1CCN(Cc2ccc(F)cc2C#N)CC1 [Example 291, N-(5-cyano-2-(4-(2-cyano-4-fluorobenzyl)piperazin-1-yl)phenyl)-2-methoxynicotinamide] |
| 6.6 | Cn1cccc(C(=O)Nc2cc(C#N)ccc2N2CCC(Oc3cc(F)cnc3F)CC2)c1=O [Example 292, N-(5-cyano-2-(4-((2,5-difluoropyridin-3-yl)oxy)piperidin-1-yl)phenyl)-1-methyl-2-oxo-1,2-dihydropyridine-3-carboxamide] |
| 6.9 | COCc1cc(N2CCC(Oc3ccc(F)cc3F)CC2)c(NC(=O)c2cccnc2OC)cn1 [Example 268] |
| 6.1 | COc1nn(C)cc1C(=O)Nc1cc(C#N)cnc1N1CCN(Cc2ccc(OC(F)(F)F)cc2)CC1 [Example 166, N-(5-cyano-2-(4-(4-(trifluoromethoxy)benzyl)piperazin-1-yl)pyridin-3-yl)-3-methoxy-1-methyl-1H-pyrazole-4-carboxamide] |
| 7.3 | COc1ccncc1C(=O)Nc1cc(C(=O)N(C)C)ncc1N1CCC(Oc2ccc(F)cc2F)CC1 [Example 262, 5-(4-(2,4-difluorophenoxy)piperidin-1-yl)-4-(4-methoxynicotinamido)-N,N-dimethylpicolinamide] |
| 6.8 | COc1ncccc1C(=O)Nc1cnc(C(=O)N[C@@H]2CCOC2)cc1N1CCC(Oc2ccc(F)cc2F)CC1 [Example 251, (R)-4-(4-(2,4-difluorophenoxy)piperidin-1-yl)-5-(2-methoxynicotinamido)-N-(tetrahydrofuran-3-yl)picolinamide] |
| 5.9 | Cn1c(-c2ccccc2)ncc(C(=O)Nc2cc(C#N)ccc2N2CCC(Oc3ccc(F)cc3F)CC2)c1=O [Example 183, N-(5-cyano-2-(4-(2,4-difluorophenoxy)piperidin-1-yl)phenyl)-1-methyl-6-oxo-2-phenyl-1,6-dihydropyrimidine-5-carboxamide] |
| 6.5 | COc1cc(F)c(F)cc1CN1CCN(c2ncc(C#N)cc2NC(=O)c2cn(C)nc2OC)CC1 [Example 170, N-(5-cyano-2-(4-(4,5-difluoro-2-methoxybenzyl)piperazin-1-yl)pyridin-3-yl)-3-methoxy-1-methyl-1H-pyrazole-4-carboxamide] |
| 6.1 | COc1ccc(C(C)(C)C)cc1C(=O)Nc1cc(C#N)ccc1N1CCC(Oc2ccc(F)cc2F)CC1 [Example 209, 5-(tert-butyl)-N-(5-cyano-2-(4-(2,4-difluorophenoxy)piperidin-1-yl)phenyl)-2-methoxybenzamide] |
| 6.7 | Cc1cn2c(=O)c(C(=O)Nc3cc(C#N)ccc3N3CCC(Oc4ccc(F)cc4F)CC3)cnc2s1 [Example 217, N-(5-cyano-2-(4-(2,4-difluorophenoxy)piperidin-1-yl)phenyl)-2-methyl-5-oxo-5H-thiazolo[3,2-a]pyrimidine-6-carboxamide] |

More lines, now with the values behind:

| SMILES | pEC50, in vitro inhibition of cAMP |
| --- | --- |
| COc1cnccc1C(=O)Nc1cc(C#N)ccc1N1CCC(Oc2ccc(F)cc2F)CC1 [Example 25, N-(5-cyano-2-(4-(2,4-difluorophenoxy)piperidin-1-yl)phenyl)-3-methoxyisonicotinamide] | 7.0 |
| CCc1cc(C(=O)Nc2cc(C#N)ccc2N2CCC(Oc3ccc(F)cc3F)CC2)no1 [Example 118, N-(5-cyano-2-(4-(2,4-difluorophenoxy)piperidin-1-yl)phenyl)-5-ethylisoxazole-3-carboxamide] | 6.4 |
| COc1cc(F)ccc1C(=O)Nc1cc(C#N)cnc1N1CCC(Oc2ccc(F)cc2F)CC1 [Example 56, N-(5-cyano-2-(4-(2,4-difluorobenoxy)piperidin-1-yl)pyridin-3-yl)-4-fluoro-2-methoxybenzamide] | 7.2 |
| Cn1cccc(C(=O)Nc2ccc(S(C)(=O)=O)cc2N2CCC(Oc3ccc(F)cc3F)CC2)c1=O [Example 30, N-(2-(4-(2,4-difluorophenoxy)piperidin-1-yl)-4-(methylsulfonyl)phenyl)-1-methyl-2-oxo-1,2-dihydropyridine-3-carboxamide] | 7.2 |
| COc1ccc(OC2CCN(c3ccc(S(C)(=O)=O)cc3NC(=O)c3cn(CCF)nc3OC)CC2)c(F)c1 [Example 1, V-(2-(4-(2-fluoro-4-methoxyphenoxy)piperidin-1-yl)-5-(methylsulfonyl)phenyl)-1-(2-fluoroethyl)-3-methoxy-1H-pyrazole-4-carboxamide] | 7.2 |
| Cn1cccc(C(=O)Nc2cc(C#N)ccc2N2CCC([C@H](F)c3ccc(F)cc3F)CC2)c1=O [Example 84, (S)—N-(5-cyano-2-(4-((2,4-difluorophenyl)fluoromethyl)piperidin-1-yl)phenyl)-1-methyl-2-oxo-1,2-dihydropyridine-3-carboxamide] | 6.6 |
| N#Cc1ccc(N2CCC(Oc3ccc(F)cc3F)CC2)c(NC(=O)c2ccon2)c1 [Example 117, N-(5-cyano-2-(4-(2,4-difluorophenoxy)piperidin-1-yl)phenyl)isoxazole-3-carboxamide] | 6.3 |
| CCOc1c(C(=O)Nc2cc(C#N)cnc2N2CCC(Oc3ccc(F)cc3F)CC2)cnn1C [Example 121, N-(5-cyano-2-(4-(2,4-difluorophenoxy)piperidin-1-yl)pyridin-3-yl)-5-ethoxy-1-methyl-1H-pyrazole-4-carboxamide] | 6.7 |
| Cn1cccc(C(=O)Nc2cc(C#N)ccc2N2CCC(C(F)(F)c3ccc(F)cc3F)CC2)c1=O [Example 86, N-(5-cyano-2-(4-((2,4-difluorophenyl)difluoromethyl)piperidin-1-yl)phenyl)-1-methyl-2-oxo-1,2-dihydropyridine-3-carboxamide] | 6.8 |
| Cn1cnc(C(=O)Nc2cc(C#N)ccc2N2CCC(Oc3ccc(F)cc3F)CC2)c1 [Example 45, N-(5-cyano-2-(4-(2,4-difluorophenoxy)piperidin-1-yl)phenyl)-1-methyl-1H-imidazole-4-carboxamide] | 6.6 |
| Cn1cccc(C(=O)Nc2cc(C#N)ccc2N2CCC(C(=O)c3cc(F)ccc3F)CC2)c1=O [Example 82, N-(5-cyano-2-(4-(2,5-difluorobenzoyl)piperidin-1-yl)phenyl)-1-methyl-2-oxo-1,2-dihydropyridine-3-carboxamide] | 7.0 |
| COc1nccnc1C(=O)Nc1cc(C#N)ccc1N1CCC(Oc2ccc(F)cc2F)CC1 [Example 94, N-(5-cyano-2-(4-(2,4-difluorophenoxy)piperidin-1-yl)phenyl)-3-methoxypyrazine-2-carboxamide] | <5.7 |
| COc1ncccc1C(=O)Nc1cc(C#N)ccc1N1CCC(C(=O)c2ccccc2)CC1 [Example 70, N-(2-(4-benzoylpiperidin-1-yl)-5-cyanophenyl)-2-methoxynicotinamide] | 6.4 |
| CS(=O)(=O)c1ccc(N2CCC(Oc3ccc(F)cc3F)CC2)c(NC(=O)c2cnn3c2OCCCC3)c1 [Example 38, N-(2-(4-(2,4-difluorophenoxy)piperidin-1-yl)-5-(methylsulfonyl)phenyl)-5,6,7,8-tetrahydropyrazolo[5,1-b][1,3]oxazepine-3-carboxamide] | 6.8 |

same assay, conditions: inhibition of constitutive cAMP activity of GPR6 in CHO-K1 cells; read-out: pEC50, in vitro inhibition of cAMP (converted)

| EC50 [nM] | SMILES |
| --- | --- |
| 100 | N#Cc1cnc(N2CCC(Cc3ccccc3)CC2)c(NC(=O)c2ccccn2)c1 [Example 67, N-(2-(4-benzylpiperidin-1-yl)-5-cyanopyridin-3-yl)picolinamide] |
